Source: BindingDB's records for doi:10.1016/j.bmcl.2018.02.046 (AstraZeneca, 2018)

Molecular target: Proprotein convertase subtilisin/kexin type 9 (Homo sapiens, UniProt Q8NBP7)
Experiment: Inhibition of PCSK9 binding to LDLR in human HuH7 cells after 5 hrs by On-cell Western assay

Proprotein convertase subtilisin/kexin type 9, sequence (Q8NBP7 31-152 limits assumed): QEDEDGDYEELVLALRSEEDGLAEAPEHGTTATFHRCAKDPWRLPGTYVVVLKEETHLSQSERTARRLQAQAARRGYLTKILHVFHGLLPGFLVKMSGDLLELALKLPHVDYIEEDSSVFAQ
Proprotein convertase subtilisin/kexin type 9, sequence (Q8NBP7 153-692 limits assumed): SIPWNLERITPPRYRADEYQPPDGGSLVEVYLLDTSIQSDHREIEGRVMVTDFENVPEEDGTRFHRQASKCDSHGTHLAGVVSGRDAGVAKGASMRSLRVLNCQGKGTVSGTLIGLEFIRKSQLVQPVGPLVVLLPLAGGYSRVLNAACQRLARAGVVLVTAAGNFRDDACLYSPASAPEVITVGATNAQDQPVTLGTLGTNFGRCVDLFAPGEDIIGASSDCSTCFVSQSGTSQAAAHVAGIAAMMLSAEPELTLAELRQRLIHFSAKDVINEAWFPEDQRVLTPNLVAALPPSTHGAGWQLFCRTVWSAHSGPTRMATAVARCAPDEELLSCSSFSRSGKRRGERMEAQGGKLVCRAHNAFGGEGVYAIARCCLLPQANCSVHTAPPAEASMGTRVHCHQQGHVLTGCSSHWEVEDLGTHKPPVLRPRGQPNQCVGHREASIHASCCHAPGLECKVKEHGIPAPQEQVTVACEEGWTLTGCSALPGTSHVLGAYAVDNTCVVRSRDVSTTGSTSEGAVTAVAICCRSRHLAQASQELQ

IC50: 1.6 µM
Substance: H-LILPKHSDAD-OH
